Experimental data taken from PubChem BioAssay (NCI).
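Test compounds were applied to cells in 96-well plates for 48 hours at 5 doses. GI50 = concentration required for 50% inhibition of growth. TGI is the concentration that stops growth completely.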

Experiments:
Test in all cases: NCI anticancer screen, dose series, 48 h
UO-31 renal = system: UO-31 renal
HCT-116 colon = system: HCT-116 colon
MDA-N = system: MDA-N
HOP-62 NSCLC = system: HOP-62 NSCLC
M14 melanoma = system: M14 melanoma
NCI-H522 lung = system: NCI-H522 lung
A549 NSCLC = system: A549 NSCLC
MALME-3M melanoma = system: MALME-3M melanoma
HL-60(TB) leukemia = system: HL-60(TB) leukemia
COLO 205 colon = system: COLO 205 colon
SK-MEL-28 melanoma = system: SK-MEL-28 melanoma
OVCAR-5 ovarian = system: OVCAR-5 ovarian
U251 CNS = system: U251 CNS
SNB-19 CNS = system: SNB-19 CNS
TK-10 renal = system: TK-10 renal
RXF 393 renal = system: RXF 393 renal
NCI-H460 lung = system: NCI-H460 lung
SF-295 CNS = system: SF-295 CNS
HS 578T breast = system: HS 578T breast
IGROV1 ovarian = system: IGROV1 ovarian
786-0 renal = system: 786-0 renal
UACC-257 melanoma = system: UACC-257 melanoma
OVCAR-8 ovarian = system: OVCAR-8 ovarian
DU-145 prostate = system: DU-145 prostate
SN12C renal = system: SN12C renal
OVCAR-3 ovarian = system: OVCAR-3 ovarian
SNB-75 CNS = system: SNB-75 CNS
KM12 colon = system: KM12 colon
SK-MEL-5 melanoma = system: SK-MEL-5 melanoma
BT-549 breast = system: BT-549 breast
EKVX NSCLC = system: EKVX NSCLC
MOLT-4 leukemia = system: MOLT-4 leukemia
RPMI-8226 leukemia = system: RPMI-8226 leukemia
HCT-15 colon = system: HCT-15 colon
PC-3 prostate = system: PC-3 prostate
UACC-62 melanoma = system: UACC-62 melanoma
HT29 colon = system: HT29 colon
SR leukemia = system: SR leukemia
HOP-92 NSCLC = system: HOP-92 NSCLC
HCC-2998 colon = system: HCC-2998 colon
SW-620 colon = system: SW-620 colon
NCI-H23 lung = system: NCI-H23 lung
ACHN renal = system: ACHN renal
SF-268 CNS = system: SF-268 CNS
SF-539 CNS = system: SF-539 CNS
SK-OV-3 ovarian = system: SK-OV-3 ovarian
OVCAR-4 ovarian = system: OVCAR-4 ovarian
A498 renal = system: A498 renal
CAKI-1 renal = system: CAKI-1 renal
MDA-MB-435 = system: MDA-MB-435
MCF7 breast = system: MCF7 breast
NCI/ADR-RES ovarian = system: NCI/ADR-RES ovarian
SK-MEL-2 melanoma = system: SK-MEL-2 melanoma
T-47D breast = system: T-47D breast
CCRF-CEM leukemia = system: CCRF-CEM leukemia
K-562 leukemia = system: K-562 leukemia
NCI-H226 lung = system: NCI-H226 lung
LOX IMVI melanoma = system: LOX IMVI melanoma
MDA-MB-231 breast = system: MDA-MB-231 breast

Q: Which TGI (UO-31 renal) does the source give for `COC(C)(C)C1(O)CCC(C)CC1=O` (stereo unspecified) here?
A: > 100 µM

Q: And the TGI (HCT-116 colon)?
A: > 100 µM

Q: And the TGI (MDA-N)?
A: > 100 µM

Q: What about the TGI (HOP-62 NSCLC) of the same molecule?
A: > 100 µM

Q: And the TGI (M14 melanoma)?
A: > 100 µM

Q: And the TGI (NCI-H522 lung)?
A: > 100 µM

Q: And the TGI (A549 NSCLC)?
A: > 100 µM

Q: What about the TGI (MALME-3M melanoma) of the same molecule?
A: > 100 µM

Q: What about the TGI (HL-60(TB) leukemia) of the same molecule?
A: > 100 µM

Q: And the TGI (COLO 205 colon)?
A: > 100 µM

Q: And the TGI (SK-MEL-28 melanoma)?
A: > 100 µM

Q: And the TGI (OVCAR-5 ovarian)?
A: > 100 µM

Q: What about the TGI (U251 CNS) of the same molecule?
A: > 100 µM

Q: And the TGI (SNB-19 CNS)?
A: > 100 µM

Q: What about the TGI (TK-10 renal) of the same molecule?
A: > 100 µM

Q: What about the TGI (RXF 393 renal) of the same molecule?
A: > 100 µM

Q: What about the TGI (NCI-H460 lung) of the same molecule?
A: > 100 µM

Q: What about the TGI (SF-295 CNS) of the same molecule?
A: > 100 µM

Q: What about the TGI (HS 578T breast) of the same molecule?
A: > 100 µM

Q: What about the TGI (IGROV1 ovarian) of the same molecule?
A: > 100 µM

Q: What about the TGI (786-0 renal) of the same molecule?
A: > 100 µM

Q: And the TGI (UACC-257 melanoma)?
A: > 100 µM

Q: And the TGI (OVCAR-8 ovarian)?
A: > 100 µM

Q: What about the TGI (DU-145 prostate) of the same molecule?
A: > 100 µM

Q: What about the TGI (SN12C renal) of the same molecule?
A: > 100 µM

Q: And the TGI (OVCAR-3 ovarian)?
A: > 100 µM

Q: What about the TGI (SNB-75 CNS) of the same molecule?
A: > 100 µM

Q: And the TGI (KM12 colon)?
A: > 100 µM

Q: And the TGI (SK-MEL-5 melanoma)?
A: > 100 µM

Q: And the TGI (BT-549 breast)?
A: > 100 µM

Q: What about the TGI (EKVX NSCLC) of the same molecule?
A: > 100 µM

Q: What about the TGI (MOLT-4 leukemia) of the same molecule?
A: > 100 µM

Q: And the TGI (RPMI-8226 leukemia)?
A: > 100 µM

Q: What about the TGI (HCT-15 colon) of the same molecule?
A: > 100 µM

Q: What about the TGI (PC-3 prostate) of the same molecule?
A: > 100 µM

Q: And the TGI (UACC-62 melanoma)?
A: > 100 µM

Q: And the TGI (HT29 colon)?
A: > 100 µM

Q: And the TGI (SR leukemia)?
A: > 100 µM

Q: And the TGI (HOP-92 NSCLC)?
A: > 100 µM

Q: What about the TGI (HCC-2998 colon) of the same molecule?
A: > 100 µM

Q: What about the TGI (SW-620 colon) of the same molecule?
A: > 100 µM

Q: What about the TGI (NCI-H23 lung) of the same molecule?
A: > 100 µM

Q: And the TGI (ACHN renal)?
A: > 100 µM

Q: What about the TGI (SF-268 CNS) of the same molecule?
A: > 100 µM

Q: And the TGI (SF-539 CNS)?
A: > 100 µM

Q: What about the TGI (SK-OV-3 ovarian) of the same molecule?
A: > 100 µM

Q: And the TGI (OVCAR-4 ovarian)?
A: > 100 µM

Q: What about the TGI (A498 renal) of the same molecule?
A: > 100 µM

Q: And the TGI (CAKI-1 renal)?
A: > 100 µM

Q: What about the TGI (MDA-MB-435) of the same molecule?
A: > 100 µM

Q: Which results are given for `Cc1cc(CC(C)CC(C)(C)C)n(O)c(=O)c1` (stereo unspecified) (tested in a mixture with another compound)?
A: GI50 (UO-31 renal): 0.379 µM; TGI (UO-31 renal): 7.01 µM; GI50 (HCT-116 colon): 0.406 µM; TGI (HCT-116 colon): 13.2 µM; GI50 (HOP-62 NSCLC): 0.677 µM; TGI (HOP-62 NSCLC): 16.1 µM; GI50 (M14 melanoma): 0.285 µM; TGI (M14 melanoma): 1.16 µM; GI50 (NCI-H522 lung): 0.475 µM; TGI (NCI-H522 lung): 4.23 µM; GI50 (A549 NSCLC): 0.5 µM; TGI (A549 NSCLC): > 49.7 µM; GI50 (MALME-3M melanoma): 0.482 µM; TGI (MALME-3M melanoma): 13 µM; GI50 (HL-60(TB) leukemia): 0.189 µM; TGI (HL-60(TB) leukemia): 0.525 µM; GI50 (COLO 205 colon): 13.4 µM; TGI (COLO 205 colon): 59.6 µM; GI50 (SK-MEL-28 melanoma): 0.548 µM; TGI (SK-MEL-28 melanoma): > 63.2 µM; GI50 (OVCAR-5 ovarian): 0.689 µM; TGI (OVCAR-5 ovarian): > 58 µM; GI50 (U251 CNS): 0.4 µM; TGI (U251 CNS): 13.9 µM; GI50 (SNB-19 CNS): 0.519 µM; TGI (SNB-19 CNS): > 100 µM; GI50 (TK-10 renal): 5.09 µM; TGI (TK-10 renal): > 74.7 µM; GI50 (RXF 393 renal): 0.372 µM; TGI (RXF 393 renal): 6.53 µM; GI50 (MCF7 breast): 0.401 µM; TGI (MCF7 breast): > 43 µM; GI50 (NCI-H460 lung): 0.331 µM; TGI (NCI-H460 lung): 10.9 µM; GI50 (SF-295 CNS): 0.447 µM; TGI (SF-295 CNS): 18.5 µM; GI50 (HS 578T breast): 8.07 µM; TGI (HS 578T breast): > 62.1 µM; GI50 (NCI/ADR-RES ovarian): 0.373 µM; TGI (NCI/ADR-RES ovarian): 4.02 µM; GI50 (IGROV1 ovarian): 0.464 µM; TGI (IGROV1 ovarian): 16.7 µM; GI50 (786-0 renal): 1.8 µM; TGI (786-0 renal): 5.7 µM; GI50 (SK-MEL-2 melanoma): 0.766 µM; TGI (SK-MEL-2 melanoma): > 100 µM; GI50 (T-47D breast): 0.725 µM; TGI (T-47D breast): > 43.6 µM; GI50 (UACC-257 melanoma): 0.507 µM; TGI (UACC-257 melanoma): > 100 µM; GI50 (OVCAR-8 ovarian): 0.41 µM; TGI (OVCAR-8 ovarian): > 100 µM; GI50 (DU-145 prostate): 0.505 µM; TGI (DU-145 prostate): > 41.3 µM; GI50 (SN12C renal): 0.468 µM; TGI (SN12C renal): 32.7 µM; GI50 (OVCAR-3 ovarian): 0.745 µM; TGI (OVCAR-3 ovarian): 18.6 µM; GI50 (SNB-75 CNS): 1.61 µM; TGI (SNB-75 CNS): 61.2 µM; GI50 (KM12 colon): 0.602 µM; TGI (KM12 colon): 21.3 µM; GI50 (SK-MEL-5 melanoma): 0.292 µM; TGI (SK-MEL-5 melanoma): 1.01 µM; GI50 (BT-549 breast): 0.351 µM; TGI (BT-549 breast): 3.25 µM; GI50 (EKVX NSCLC): 0.889 µM; TGI (EKVX NSCLC): 25.4 µM; GI50 (MOLT-4 leukemia): 0.246 µM; TGI (MOLT-4 leukemia): 0.714 µM; GI50 (RPMI-8226 leukemia): 0.365 µM; TGI (RPMI-8226 leukemia): 8.06 µM; GI50 (HCT-15 colon): 0.459 µM; TGI (HCT-15 colon): > 100 µM; GI50 (PC-3 prostate): 0.601 µM; TGI (PC-3 prostate): 40 µM; GI50 (UACC-62 melanoma): 0.305 µM; TGI (UACC-62 melanoma): 1.08 µM; GI50 (CCRF-CEM leukemia): 0.261 µM; TGI (CCRF-CEM leukemia): 1.3 µM; GI50 (K-562 leukemia): 0.258 µM; TGI (K-562 leukemia): 15.2 µM; GI50 (HT29 colon): 3.91 µM; TGI (HT29 colon): 17.5 µM; GI50 (SR leukemia): 0.286 µM; TGI (SR leukemia): 2.97 µM; GI50 (HOP-92 NSCLC): 0.174 µM; TGI (HOP-92 NSCLC): 1.88 µM; GI50 (HCC-2998 colon): 2.6 µM; TGI (HCC-2998 colon): 17.7 µM; GI50 (SW-620 colon): 0.478 µM; TGI (SW-620 colon): > 81.1 µM; GI50 (NCI-H23 lung): 0.559 µM; TGI (NCI-H23 lung): 22 µM; GI50 (ACHN renal): 0.385 µM; TGI (ACHN renal): > 37.6 µM; GI50 (NCI-H226 lung): 0.435 µM; TGI (NCI-H226 lung): 10.4 µM; GI50 (SF-268 CNS): 0.409 µM; TGI (SF-268 CNS): 16.1 µM; GI50 (SF-539 CNS): 0.39 µM; TGI (SF-539 CNS): 13.2 µM; GI50 (SK-OV-3 ovarian): 1.75 µM; TGI (SK-OV-3 ovarian): > 55.3 µM; GI50 (OVCAR-4 ovarian): 0.358 µM; TGI (OVCAR-4 ovarian): > 84.4 µM; GI50 (A498 renal): 0.944 µM; TGI (A498 renal): 10.3 µM; GI50 (CAKI-1 renal): 1.76 µM; TGI (CAKI-1 renal): 9.82 µM; GI50 (LOX IMVI melanoma): 0.312 µM; TGI (LOX IMVI melanoma): 10.9 µM; GI50 (MDA-MB-231 breast): 0.45 µM; TGI (MDA-MB-231 breast): > 48.5 µM; GI50 (MDA-MB-435): 0.559 µM; TGI (MDA-MB-435): 24.9 µM
